Where two headings read alike, the source gives them in different places.
Experiment: Example 18 cynomolgus monkey PK study (SC and IM)
Format: in vivo, cynomolgus monkeys
Conditions: male, cynomolgus monkey, plasma, read-out: Example 18 plasma concentrations
Excerpt: Example 18 referenced herein was made in accordance with Synthesis B. Six male cynomolgus monkeys (+1 spare) were selected from the Testing Facility's colony of non-naïve animals. The animals were assigned to the study based on acceptable health as determined by a Testing Facility veterinarian. Six animals were selected and placed into two groups of three animals each. Fasting of the animals before or after dosing was not required.
[…] […] The animals were manually restrained for dosing and were not sedated. The dose sites were clipped of hair and wiped with alcohol before dosing. All dosing was performed as detailed in the study protocol and was completed without incident.
Blood samples were collected from the study animals as detailed in the sample collection Table 39 below.
Blood samples were collected by venipuncture of a cephalic vein. For PK, blood was transferred to a blood collection tube containing NaF/Na2EDTA anticoagulant, mixed by inversion, and maintained on wet ice until processing. The blood samples were centrifuged at 2200×g for 10 minutes at 5° C. to isolate plasma. The resulting plasma samples were transferred to individual polypropylene tubes in a 96-well plate format and immediately placed on dry ice until storage at nominally −20° C. prior to shipment for analysis.
The PK plasma samples were analyzed approximately every two weeks by the Testing Facility to determine the concentration of Example 18 (prodrug) and parent using an LC-MS/MS Research Grade Assay (RGA-1) with sensitivity to 0.1 ng/mL. Following interim review of sample analysis data, analysis for Example 18 (prodrug) was discontinued after the Day 57 sample collections. The bioanalytical report and sample concentration data are presented in Tables 40 and 41, and mean concentration-time profiles are shown in FIGS. 29 and 30

[1] = intramuscular, 20 mg/kg equivalent of EFdA, IM 20 mg/kg equivalent of EFdA, Monkey 2001
[2] = intramuscular, 20 mg/kg equivalent of EFdA, IM 20 mg/kg equivalent of EFdA, Monkey 2002
[3] = intramuscular, 20 mg/kg equivalent of EFdA, IM 20 mg/kg equivalent of EFdA, Monkey 2003
[4] = sc, 20 mg/kg, SC 20 mg/kg equivalent of EFdA, Mean
[5] = sc, 20 mg/kg, SC 20 mg/kg equivalent of EFdA, Monkey 1001
[6] = sc, 20 mg/kg, SC 20 mg/kg equivalent of EFdA, Monkey 1002 (column 3)
[7] = sc, 20 mg/kg, SC 20 mg/kg equivalent of EFdA, Monkey 1002

Compound: C#C[C@]1(COC(=O)CCCCCCCCC)O[C@@H](n2cnc3c(N)nc(F)nc32)C[C@@H]1OC(=O)CCCCCCCCC [Example 18, (2R,3S,5R)-5-(6-amino-2-fluoro-9H-purin-9-yl)-2-((decanoyloxy)methyl)-2-ethynyltetrahydrofuran-3-yl Decanoate]
- concentration at 0.208 days [1]: 51.3 ng/mL
- concentration at 0.292 days [1]: 30.1 ng/mL
- concentration at 1 days [1]: 6.89 ng/mL
- concentration at 2 days [1]: 0.652 ng/mL
- concentration at 3 days [1]: 0.379 ng/mL
- concentration at 8 days [1]: 0.203 ng/mL
- concentration at 10 days [1]: 0.156 ng/mL
- concentration at 17 days [1]: 0.135 ng/mL
- concentration at 19 days [1]: 0.119 ng/mL
- concentration at 22 days [1]: 0.146 ng/mL
- concentration at 29 days [1]: 0.155 ng/mL
- concentration at 0.021 days [2]: 40.2 ng/mL
- concentration at 0.042 days [2]: 82.6 ng/mL
- concentration at 0.125 days [2]: 363 ng/mL
- concentration at 0.208 days [2]: 692 ng/mL
- concentration at 0.292 days [2]: 821 ng/mL
- concentration at 1 days [2]: 110 ng/mL
- concentration at 2 days [2]: 0.674 ng/mL
- concentration at 3 days [2]: 0.533 ng/mL
- concentration at 8 days [2]: 0.248 ng/mL
- concentration at 10 days [2]: 0.251 ng/mL
- concentration at 17 days [2]: 0.16 ng/mL
- concentration at 19 days [2]: 0.149 ng/mL
- concentration at 22 days [2]: 0.114 ng/mL
- concentration at 25 days [2]: 0.125 ng/mL
- concentration at 29 days [2]: 0.135 ng/mL
- concentration at 0.021 days [3]: 1.93 ng/mL
- concentration at 0.042 days [3]: 0.79 ng/mL
- concentration at 0.125 days [3]: 3.31 ng/mL
- concentration at 0.208 days [3]: 5.27 ng/mL
- concentration at 0.292 days [3]: 6.42 ng/mL
- concentration at 1 days [3]: 2.08 ng/mL
- concentration at 2 days [3]: 0.387 ng/mL
- concentration at 3 days [3]: 0.63 ng/mL
- concentration at 8 days [3]: 0.171 ng/mL
- concentration at 10 days [3]: 0.19 ng/mL
- concentration at 17 days [3]: 0.154 ng/mL
- concentration at 19 days [3]: 0.129 ng/mL
- concentration at 22 days [3]: 0.113 ng/mL
- concentration at 25 days [3]: 0.151 ng/mL
- concentration at 46 days (intramuscular, 20 mg/kg equivalent of EFdA, IM 20 mg/kg equivalent of EFdA, Monkey 2003, 46 days): 0.105 ng/mL
- concentration at 0.021 days [4]: 0.235 ng/mL
- concentration at 0.042 days [4]: 0.905 ng/mL
- concentration at 0.125 days [4]: 3.94 ng/mL
- concentration at 0.208 days [4]: 4.95 ng/mL
- concentration at 0.292 days [4]: 4.53 ng/mL
- concentration at 1 days [4]: 1.12 ng/mL
- concentration at 2 days [4]: 0.405 ng/mL
- concentration at 3 days [4]: 0.312 ng/mL
- concentration at 8 days [4]: 0.117 ng/mL
- concentration at 10 days [4]: 129 ng/mL
- concentration at 0.021 days [5]: 49.4 ng/mL
- concentration at 0.042 days [5]: 70.3 ng/mL
- concentration at 0.125 days [5]: 149 ng/mL
- concentration at 0.208 days [5]: 92.8 ng/mL
- concentration at 0.292 days [5]: 146 ng/mL
- concentration at 1 days [5]: 36.5 ng/mL
- concentration at 2 days [5]: 0.734 ng/mL
- concentration at 3 days [5]: 0.694 ng/mL
- concentration at 10 days [5]: 0.146 ng/mL
- concentration at 0.021 days [6]: 0.133 ng/mL
- concentration at 0.042 days [6]: 0.179 ng/mL
- concentration at 0.125 days [6]: 2.29 ng/mL
- concentration at 0.208 days [6]: 1.91 ng/mL
- concentration at 0.292 days [6]: 2.38 ng/mL
- concentration at 1 days [6]: 0.641 ng/mL
- concentration at 2 days [6]: 0.579 ng/mL
- concentration at 3 days [6]: 0.396 ng/mL
- concentration at 8 days [6]: 0.131 ng/mL
- concentration at 10 days [6]: 0.146 ng/mL
- concentration at 0.021 days [7]: 0.337 ng/mL
- concentration at 0.042 days [7]: 1.63 ng/mL
- concentration at 0.125 days [7]: 5.59 ng/mL
- concentration at 0.208 days [7]: 7.99 ng/mL
- concentration at 0.292 days [7]: 6.67 ng/mL
- concentration at 1 days [7]: 1.6 ng/mL
- concentration at 2 days [7]: 0.23 ng/mL
- concentration at 3 days [7]: 0.228 ng/mL
- concentration at 8 days [7]: 0.102 ng/mL
- concentration at 10 days [7]: 0.111 ng/mL

Reference: patent US12240853B2, “Compounds useful in HIV therapy” (GlaxoSmithKline Intellectual Property (No.2) Limited, priority 2019, dated 2025)
